The nature of the experiment: CD69 Whole Blood Assay (CD69 Hu Blood FACS). Format: cell-based, human. The settings on record: Lymphocyte; human whole blood, anti-IgM activated B lymphocytes, FACS; IC70; Table 2 (unit inferred); read-out: CD69 Hu Blood FACS (IC70). The procedure, abridged: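 Human whole blood stimulated by crosslinking surface IgM with goat F(ab′)2 anti-human IgM; inhibition of CD69 expression on B lymphocytes measured by flow cytometry.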

For orientation: IC70 means the concentration needed for an effect of 70%.

The structures appear in SMILES notation.

Consider `Cn1nc(-c2ccnc(-n3ncc4c5c(sc4c3=O)CCCC5)c2CO)cc(Nc2ccc(C(=O)N3CCOCC3)cn2)c1=O` [Example 258, 3-[3-(hydroxymethyl)-4-[1-methyl-5-[[5-(morpholine-4-carbonyl)-2-pyridyl]amino]-6-oxo-pyridazin-3-yl]-2-pyridyl]-6,7,8,9-tetrahydrobenzothiopheno[2,3-d]pyridazin-4-one], for which the IC70 turned out to be 646 nM.
The same measure for `Cn1nc(-c2ccnc(N3CCc4c(sc5c4CC(C)(C)C5)C3=O)c2CO)cc(Nc2ccc(C(=O)N3CCOCC3)cn2)c1=O` [Example 259, 3-[3-(hydroxymethyl)-4-[1-methyl-5-[[5-(morpholine-4-carbonyl)-2-pyridyl]amino]-6-oxo-pyridazin-3-yl]-2-pyridyl]-7,7-dimethyl-1,2,6,8-tetrahydrocyclopenta[3,4]thieno[1,3-c]pyridin-4-one]: 301 nM; for `Cc1cc(Nc2cc(-c3ccnc(N4CCn5c(cc6c5CC(C)(C)C6)C4=O)c3CO)cn(C)c2=O)n[nH]1` [Example 260, 3-[3-(hydroxymethyl)-4-[1-methyl-5-[(5-methyl-1H-pyrazol-3-yl)amino]-6-oxo-3-pyridyl]-2-pyridyl]-7,7-dimethyl-1,2,6,8-tetrahydrocyclopenta[3,4]pyrrolo[3,5-b]pyrazin-4-one]: 60.6 nM; for `Cc1cc(Nc2cc(-c3ccnc(N4CCc5c(c(F)c6n5CCCC6)C4=O)c3CO)cn(C)c2=O)nn1C` [Example 261, 2-[4-[5-[(1,5-dimethylpyrazol-3-yl)amino]-1-methyl-6-oxo-3-pyridyl]-3-(hydroxymethyl)-2-pyridyl]-10-fluoro-3,4,6,7,8,9-hexahydropyrido[3,4-b]indolizin-1-one]: 2900 nM.
For `Cc1cnc(Nc2cc(-c3ccnc(N4CCn5c(cc6c5CC(C)(C)C6)C4=O)c3CO)cn(C)c2=O)o1` [Example 262, 3-[3-(hydroxymethyl)-4-[1-methyl-5-[(5-methyloxazol-2-yl)amino]-6-oxo-3-pyridyl]-2-pyridyl]-7,7-dimethyl-1,2,6,8-tetrahydrocyclopenta[3,4]pyrrolo[3,5-b]pyrazin-4-one] the value was 577 nM; for `Cn1nc(-c2ccnc(N3CCn4c5c(c(F)c4C3=O)CCCC5)c2CO)cc(Nc2ccncn2)c1=O` [Example 263, 10-fluoro-2-[3-(hydroxymethyl)-4-[1-methyl-6-oxo-5-(pyrimidin-4-ylamino)pyridazin-3-yl]-2-pyridyl]-3,4,6,7,8,9-hexahydropyrazino[1,2-a]indol-1-one], 2200 nM.
For `Cn1cc(-c2ccnc(N3CCn4c(cc5c4CC(C)(C)C5)C3=O)c2CO)cc(Nc2ccnc(C(C)(C)O)n2)c1=O` [Example 264, 3-[3-(hydroxymethyl)-4-[5-[[2-(1-hydroxy-1-methyl-ethyl)pyrimidin-4-yl]amino]-1-methyl-6-oxo-3-pyridyl]-2-pyridyl]-7,7-dimethyl-1,2,6,8-tetrahydrocyclopenta[3,4]pyrrolo[3,5-b]pyrazin-4-one] the value was 653 nM; for `CCC(=O)N1CCn2nc(Nc3cc(-c4ccnc(N5CCn6c(cc7c6CC(C)(C)C7)C5=O)c4CO)cn(C)c3=O)cc2C1` [Example 265, 3-[3-(hydroxymethyl)-4-[1-methyl-6-oxo-5-[(5-propanoyl-6,7-dihydro-4H-pyrazolo[1,5-a]pyrazin-2-yl)amino]-3-pyridyl]-2-pyridyl]-7,7-dimethyl-1,2,6,8-tetrahydrocyclopenta[3,4]pyrrolo[3,5-b]pyrazin-4-one], 9.1 nM.
Consider `Cn1cc(-c2ccnc(N3CCn4c(cc5c4CC(C)(C)C5)C3=O)c2CO)cc(Nc2cc(C3COC3)[nH]n2)c1=O` [Example 266, 3-[3-(hydroxymethyl)-4-[1-methyl-5-[[5-(oxetan-3-yl)-1H-pyrazol-3-yl]amino]-6-oxo-3-pyridyl]-2-pyridyl]-7,7-dimethyl-1,2,6,8-tetrahydrocyclopenta[3,4]pyrrolo[3,5-b]pyrazin-4-one], for which the IC70 was determined as 29.3 nM.
As for `Cc1nnc(Nc2cc(-c3ccnc(N4CCn5c(cc6c5CC(C)(C)C6)C4=O)c3CO)cn(C)c2=O)s1` [Example 267, 3-[3-(hydroxymethyl)-4-[1-methyl-5-[(5-methyl-1,3,4-thiadiazol-2-yl)amino]-6-oxo-3-pyridyl]-2-pyridyl]-7,7-dimethyl-1,2,6,8-tetrahydrocyclopenta[3,4]pyrrolo[3,5-b]pyrazin-4-one], the 70% effect concentration (IC70) amounted to 225 nM.
The same measure for `Cn1cnc(Nc2cc(-c3ccnc(N4CCn5c(cc6c5CC(C)(C)C6)C4=O)c3CO)cn(C)c2=O)c1` [Example 268, 3-[3-(hydroxymethyl)-4-[1-methyl-5-[(1-methylimidazol-4-yl)amino]-6-oxo-3-pyridyl]-2-pyridyl]-7,7-dimethyl-1,2,6,8-tetrahydrocyclopenta[3,4]pyrrolo[3,5-b]pyrazin-4-one]: 212 nM.
The same measure for `Cn1cc(-c2ccnc(N3CCn4c(cc5c4CC(C)(C)C5)C3=O)c2CO)cc(Nc2ccc(C(=O)N3CCOCC3)cn2)c1=O` [Example 269, 3-[3-(hydroxymethyl)-4-[1-methyl-5-[[5-(morpholine-4-carbonyl)-2-pyridyl]amino]-6-oxo-3-pyridyl]-2-pyridyl]-7,7-dimethyl-1,2,6,8-tetrahydrocyclopenta[3,4]pyrrolo[3,5-b]pyrazin-4-one]: 25.1 nM; for `CN1CCn2nc(Nc3cc(-c4ccnc(N5CCn6c(cc7c6CCCC7)C5=O)c4CO)cn(C)c3=O)nc2C1` [Example 270, 2-[3-(hydroxymethyl)-4-[1-methyl-5-[(7-methyl-6,8-dihydro-5H-[1,2,4]triazolo[1,5-a]pyrazin-2-yl)amino]-6-oxo-3-pyridyl]-2-pyridyl]-3,4,6,7,8,9-hexahydropyrazino[1,2-a]indol-1-one]: 5900 nM; for `C[C@H]1CN(C2COC2)CCN1c1ccc(Nc2cc(-c3ccnc(N4CCn5c(cc6c5CC(C)(C)C6)C4=O)c3CO)c[nH]c2=O)nc1` [Example 271, 3-[3-(hydroxymethyl)-4-[5-[[5-[(2S)-2-methyl-4-(oxetan-3-yl)piperazin-1-yl]-2-pyridyl]amino]-6-oxo-1H-pyridin-3-yl]-2-pyridyl]-7,7-dimethyl-1,2,6,8-tetrahydrocyclopenta[3,4]pyrrolo[3,5-b]pyrazin-4-one]: 24.5 nM.
The same measure for `Cn1cc(-c2ccnc(N3CCn4c(cc5c4CC(C)(C)C5)C3=O)c2CO)cc(Nc2ccc(C3CN(C4COC4)C3)cn2)c1=O` [Example 272, 3-[3-(hydroxymethyl)-4-[1-methyl-5-[[5-[1-(oxetan-3-yl)azetidin-3-yl]-2-pyridyl]amino]-6-oxo-3-pyridyl]-2-pyridyl]-7,7-dimethyl-1,2,6,8-tetrahydrocyclopenta[3,4]pyrrolo[3,5-b]pyrazin-4-one]: 34 nM; for `Cn1cc(-c2ccnc(N3CCn4c(cc5c4CC(C)(C)C5)C3=O)c2CO)cc(Nc2ccccn2)c1=O` [Example 273, 3-[3-(hydroxymethyl)-4-[1-methyl-6-oxo-5-(2-pyridylamino)-3-pyridyl]-2-pyridyl]-7,7-dimethyl-1,2,6,8-tetrahydrocyclopenta[3,4]pyrrolo[3,5-b]pyrazin-4-one]: 299 nM; for `Cc1cnc(Nc2cc(-c3ccnc(N4CCn5c(cc6c5CC(C)(C)C6)C4=O)c3CO)cn(C)c2=O)cn1` [Example 274, 3-[3-(hydroxymethyl)-4-[1-methyl-5-[(5-methylpyrazin-2-yl)amino]-6-oxo-3-pyridyl]-2-pyridyl]-7,7-dimethyl-1,2,6,8-tetrahydrocyclopenta[3,4]pyrrolo[3,5-b]pyrazin-4-one]: 466 nM.
For `Cn1cc(-c2ccnc(N3CCn4c(cc5c4CC(C)(C)C5)C3=O)c2CO)cc(Nc2ccc(F)cn2)c1=O` [Example 275, 3-[4-[5-[(5-fluoro-2-pyridyl)amino]-1-methyl-6-oxo-3-pyridyl]-3-(hydroxymethyl)-2-pyridyl]-7,7-dimethyl-1,2,6,8-tetrahydrocyclopenta[3,4]pyrrolo[3,5-b]pyrazin-4-one], the IC70 turned out to be 423 nM.
For `Cn1cc(-c2ccnc(N3CCn4c(cc5c4CC(C)(C)C5)C3=O)c2CO)cc(Nc2ccc(C#N)cn2)c1=O` [Example 276, 6-[[5-[2-(7,7-dimethyl-4-oxo-1,2,6,8-tetrahydrocyclopenta[3,4]pyrrolo[3,5-b]pyrazin-3-yl)-3-(hydroxymethyl)-4-pyridyl]-1-methyl-2-oxo-3-pyridyl]amino]pyridine-3-carbonitrile] the value was 358 nM.
The same measure for `COc1ccc(Nc2cc(-c3ccnc(N4CCn5c(cc6c5CC(C)(C)C6)C4=O)c3CO)cn(C)c2=O)nc1` [Example 277, 3-[3-(hydroxymethyl)-4-[5-[(5-methoxy-2-pyridyl)amino]-1-methyl-6-oxo-3-pyridyl]-2-pyridyl]-7,7-dimethyl-1,2,6,8-tetrahydrocyclopenta[3,4]pyrrolo[3,5-b]pyrazin-4-one]: 339 nM.
Take `Cn1cc(-c2ccnc(N3CCn4c(cc5c4CC(C)(C)C5)C3=O)c2CO)cc(Nc2ccc(C3CC3)cn2)c1=O` [Example 278, 3-[4-[5-[(5-cyclopropyl-2-pyridyl)amino]-1-methyl-6-oxo-3-pyridyl]-3-(hydroxymethyl)-2-pyridyl]-7,7-dimethyl-1,2,6,8-tetrahydrocyclopenta[3,4]pyrrolo[3,5-b]pyrazin-4-one]: the 70% effect concentration (IC70) was 3200 nM.
The same measure for `Cn1cc(-c2ccnc(N3CCn4c(cc5c4CC(C)(C)C5)C3=O)c2CO)cc(Nc2ccc(C(F)(F)F)cn2)c1=O` [Example 279, 3-[3-(hydroxymethyl)-4-[1-methyl-6-oxo-5-[[5-(trifluoromethyl)-2-pyridyl]amino]-3-pyridyl]-2-pyridyl]-7,7-dimethyl-1,2,6,8-tetrahydrocyclopenta[3,4]pyrrolo[3,5-b]pyrazin-4-one]: 2100 nM; for `Cn1nc(Nc2cc(-c3ccnc(N4CCn5c(cc6c5CC(C)(C)C6)C4=O)c3CO)cn(C)c2=O)cc1C(=O)N1CCOCC1` [Example 280, 3-[3-(hydroxymethyl)-4-[1-methyl-5-[[1-methyl-5-(morpholine-4-carbonyl)pyrazol-3-yl]amino]-6-oxo-3-pyridyl]-2-pyridyl]-7,7-dimethyl-1,2,6,8-tetrahydrocyclopenta[3,4]pyrrolo[3,5-b]pyrazin-4-one]: 14.1 nM.

For the origin of these results see patent US10045983B2, “Heteroaryl pyridone and aza-pyrodine compounds” (Genentech, Inc., priority 2011, dated 2018).
